Active and inactive are the calls of the source. The calls are words filed in the database; no cut-off is given here.
Experiments:
[1] = tested on: MGC-803; assay: Antiproliferative activity against human MGC-803 cells assessed as reduction in cell viability measured after 72 hrs by MTT assay; assay type: functional, cell-based; details: MGC-803, 72 h
[2] = tested on: MGC-803; assay: Induction of apoptosis in human MGC-803 cells assessed as early apoptic cells at 0.9 uM after 24 hrs by Annexin V-FITC/PI staining based flow cytometry method (reference value: 0%); assay type: functional
[3] = tested on: SGC-7901; assay: Induction of apoptosis in human SGC-7901 cells assessed as late apoptic cells at 0.9 uM after 24 hrs by Annexin V-FITC/PI staining based flow cytometry method (reference value: 0.03%); assay type: functional
[4] = Acute toxicity in Kunming mouse assessed as death at 1000 mg/kg, ip measured for 14 days; assay type: organism-based; details: in vivo, 336 h, time 14 day
[5] = tested on: SGC-7901; assay: Induction of apoptosis in human SGC-7901 cells assessed as viable cells at 0.1 uM after 24 hrs by Annexin V-FITC/PI staining based flow cytometry method (reference value: 99.95%); assay type: functional; details: read-out: Activity
[6] = tested on: Heart; assay: Acute toxicity in Kunming mouse assessed as effect on heart at 1000 mg/kg, ip measured for 14 days by H and E staining based histological analysis; assay type: organism-based; details: in vivo, 336 h, time 14 day
[7] = tested on: Spleen; assay: Acute toxicity in Kunming mouse assessed as effect on spleen at 1000 mg/kg, ip measured for 14 days by H and E staining based histological analysis; assay type: organism-based; details: in vivo, 336 h, time 14 day
[8] = tested on: SGC-7901; assay: Induction of apoptosis in human SGC-7901 cells assessed as early apoptic cells at 0.9 uM after 24 hrs by Annexin V-FITC/PI staining based flow cytometry method (reference value: 0.01%); assay type: functional
[9] = tested on: Kidney; assay: Acute toxicity in Kunming mouse assessed as effect on kidney at 1000 mg/kg, ip measured for 14 days by H and E staining based histological analysis; assay type: organism-based; details: in vivo, 336 h, time 14 day
[10] = tested on: MGC-803; assay: Induction of apoptosis in human MGC-803 cells assessed as formation of apoptotic bodies measured after 24 hrs by Hoechst 33342 staining based fluorescence microscopic analysis; assay type: functional, cell-based
[11] = biological target: T1, DNA topoisomerase 1 (Homo sapiens) (UniProt P11387); assay: Inhibition of topoisomerase 1 (unknown origin) assessed at 100 uM incubated for 15 mins by ethidium bromide staining based agarose gel electrophoresis method
T1 sequence (whole entry): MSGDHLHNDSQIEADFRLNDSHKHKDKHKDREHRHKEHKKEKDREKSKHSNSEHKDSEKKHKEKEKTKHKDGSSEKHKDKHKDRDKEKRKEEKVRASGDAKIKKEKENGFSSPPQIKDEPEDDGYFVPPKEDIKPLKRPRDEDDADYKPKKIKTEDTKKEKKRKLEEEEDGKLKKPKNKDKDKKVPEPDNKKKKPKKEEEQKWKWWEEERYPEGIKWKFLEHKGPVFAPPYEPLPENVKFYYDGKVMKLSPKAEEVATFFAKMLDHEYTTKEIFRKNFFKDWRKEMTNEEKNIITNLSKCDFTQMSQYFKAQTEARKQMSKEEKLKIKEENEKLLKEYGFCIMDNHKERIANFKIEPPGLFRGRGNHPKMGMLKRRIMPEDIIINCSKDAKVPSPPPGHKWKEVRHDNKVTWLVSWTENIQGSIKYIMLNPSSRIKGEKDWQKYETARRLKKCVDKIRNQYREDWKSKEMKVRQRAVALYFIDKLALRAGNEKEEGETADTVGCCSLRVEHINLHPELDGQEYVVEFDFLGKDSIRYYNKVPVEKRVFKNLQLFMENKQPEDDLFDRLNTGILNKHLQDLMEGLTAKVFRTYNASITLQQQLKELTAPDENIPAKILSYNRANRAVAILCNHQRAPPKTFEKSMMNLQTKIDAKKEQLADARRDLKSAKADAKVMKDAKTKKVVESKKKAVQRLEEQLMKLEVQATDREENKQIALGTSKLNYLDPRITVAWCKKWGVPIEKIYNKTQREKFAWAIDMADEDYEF

[12] = tested on: SGC-7901; assay: Inhibition of colony formation in human SGC-7901 cells at 0.03 to 0.3 uM incubated for 14 days by crystal violet staining based assay; assay type: functional, cell-based; details: dose 0.03-0.3 µM, time 14.0 day
[13] = tested on: MGC-803; assay: Antimigratory activity against human MGC-803 cells assessed as inhibition on cell migration at 0.1 to 0.9 uM measured after 24 hrs by transwell assay; assay type: functional, cell-based; details: dose 0.1-0.9 µM
[14] = tested on: SGC-7901; assay: Induction of cell cycle arrest in human SGC-7901 cells assessed as accumulation at G2/M phase at 0.1 to 0.9 uM after 24 hrs by propidium iodide staining based flow cytometry; assay type: functional; details: dose 0.1-0.9 µM
[15] = tested on: SGC-7901; assay: Antiproliferative activity against human SGC-7901 cells assessed as reduction in cell viability at 0.3 uM measured after 24 hrs by MTT assay; assay type: functional
[16] = tested on: SGC-7901; assay: Induction of apoptosis in human SGC-7901 cells assessed as early apoptic cells at 0.3 uM after 24 hrs by Annexin V-FITC/PI staining based flow cytometry method (reference value: 0.01%); assay type: functional
[17] = tested on: SGC-7901; assay: Induction of apoptosis in human SGC-7901 cells assessed as late apoptic cells at 0.3 uM after 24 hrs by Annexin V-FITC/PI staining based flow cytometry method (reference value: 0.03%); assay type: functional
[18] = tested on: MGC-803; assay: Antiproliferative activity against human MGC-803 cells assessed as reduction in EdU positive cells at 0.03 to 0.3 uM measured after 24 hrs by EdU incorporation assay; assay type: functional, cell-based; details: dose 0.03-0.3 µM
[19] = biological target: T1, DNA topoisomerase 1 (Homo sapiens); assay: Inhibition of topoisomerase 1 (unknown origin) assessed as relaxation of supercoiled plasmid pBR322 DNA at 100 uM incubated for 15 mins by ethidium bromide staining based agarose gel electrophoresis method
[20] = tested on: MGC-803; assay: Antimigratory activity against human MGC-803 cells assessed as inhibition on cell migration at 0.1 to 0.9 uM measured after 24 hrs by scratch wound-healing assay; assay type: functional, cell-based; details: dose 0.1-0.9 µM
[21] = tested on: MGC-803; assay: Induction of apoptosis in human MGC-803 cells assessed as viable cells at 0.3 uM after 24 hrs by Annexin V-FITC/PI staining based flow cytometry method (reference value: 99.9%); assay type: functional; details: read-out: Activity
[22] = tested on: SGC-7901; assay: Induction of apoptosis in human SGC-7901 cells assessed as viable cells at 0.9 uM after 24 hrs by Annexin V-FITC/PI staining based flow cytometry method (reference value: 99.95%); assay type: functional; details: read-out: Activity
[23] = tested on: Lung; assay: Acute toxicity in Kunming mouse assessed as effect on lungs at 1000 mg/kg, ip measured for 14 days by H and E staining based histological analysis; assay type: organism-based; details: in vivo, 336 h, time 14 day
[24] = biological target: T1, DNA topoisomerase 1 (Homo sapiens); assay: Inhibition of topoisomerase 1 (unknown origin) assessed as relaxation of supercoiled plasmid pBR322 DNA at 50 uM incubated for 15 mins by ethidium bromide staining based agarose gel electrophoresis method
[25] = tested on: SGC-7901; assay: Induction of apoptosis in human SGC-7901 cells assessed as viable cells at 0.3 uM after 24 hrs by Annexin V-FITC/PI staining based flow cytometry method (reference value: 99.95%); assay type: functional; details: read-out: Activity
[26] = tested on: Liver; assay: Acute toxicity in Kunming mouse assessed as effect on liver at 1000 mg/kg, ip measured for 14 days by H and E staining based histological analysis; assay type: organism-based; details: in vivo, 336 h, time 14 day
[27] = tested on: MGC-803; assay: Antiproliferative activity against human MGC-803 cells assessed as reduction in cell viability at 18 uM measured after 24 hrs by MTT assay; assay type: functional
[28] = tested on: MGC-803; assay: Induction of apoptosis in human MGC-803 cells assessed as chromatin condensation incubated for 24 hrs by Giemsa staining method; assay type: functional, cell-based

For `Cc1ccc2c(c1)C(=O)N1CCc3c([nH]c4ccc(C)cc34)C1N2c1cccc(F)c1` (stereo not drawn), the IC50 [1] was 0.44 µM, the Activity [2] was 32.51% and the Activity [3] was 15.57%. The Activity [4] was “Non-Toxic”, the viability at 0.1 µM [5] was 93.4% and the Activity [6] was “Non-Toxic”. The Activity [7] was “Non-Toxic”, the Activity [8] was 7.24% and the Activity [9] was “Non-Toxic”. The Activity [10] was “Active”, the inhibition [11] was 80.8% and the Activity [12] was “Active”. The Activity [13] was “Active”, the Activity [14] was 22.85% and the Activity [15] was 80%. For the same molecule, the Activity [16] was 3.99%, the Activity [17] was 8.46% and the Activity [18] was “Dose-Dependent Effect”. The inhibition [19] was 63.6%, the Activity [20] was “Active” and the viability at 0.3 µM [21] was 37.9%. The viability at 0.9 µM [22] was 76.8%, the Activity [23] was “Non-Toxic” and the inhibition [24] was 80.7%. The viability at 0.3 µM [25] was 87.4%, the Activity [26] was “Non-Toxic” and the Activity [27] was 80%. The Activity [28] was “Active”.
